{
  "source": "patent EP2566462B1",
  "about": "“IMMEDIATE RELEASE FORMULATIONS AND DOSAGE FORMS OF GAMMA-HYDROXYBUTYRATE” (Jazz Pharmaceuticals Inc., priority 2010, dated 2011)",
  "origin": "cited, not measured here",
  "key": {"[1]": {"tested_on": "patients with hyperkinetic movement disorders including ethanol responsive myoclonus and essential tremor", "settings": "open label, five patients"}, "[2]": {"settings": "in man, given orally"}},
  "data": [
    {"smiles": "O=C([O-])CCCO.[Na+]", "note": "[sodium oxybate, Sodium gamma-hydroxybutyrate]", "values": [
      {"measurement": "blinded ratings of ethanol responsive myoclonus and tremor", "setting": "[1]", "result": "dose-dependent improvements"},
      {"measurement": "tolerability", "setting": "[1]", "result": "tolerated at doses that provided clinical benefit"},
      {"measurement": "plasma half-life", "setting": "[2]", "result": "about 45 minutes"}
    ]}
  ]
}
